{"source": "patent US12115224B2", "about": "“Polypeptide conjugates for intracellular delivery of stapled peptides” (Ohio State Innovation Foundation, priority 2017, dated 2024)", "key": {"[1]": {"system": "SJSA-1 cells", "experiment": "Annexin V/propidium iodide flow cytometry assay", "type": "cell-based", "conditions": "48-hour treatment, 10% FBS", "method": "The percentage of Annexin V+/PI+ and Annexin V+/PI− SJSA-1 cells after 48-hour treatment of inhibitors in presence of 10% FBS was measured.\nThe mode of action (MOA) of CPP9-sPDI upon cytosolic delivery of the MDM2 inhibitor was also considered. […] This behavior is similar to Nutlin-3a, which is known to induce p53-dependent apoptosis in certain cancer cell lines. In this study, the percentage of Annexin V+/PI+ and Annexin V+/PI− SJSA-1 cells is determined after 48-hour treatment of inhibitors in presence of 10% FBS."}, "[2]": {"experiment": "Anti-proliferation MTT assay, SJSA-1", "type": "cell-based", "conditions": "72-hour treatment, 0-20 μM, 10% FBS, read-out: IC50 (cytotoxicity)", "method": "IC50 values (μM) are provided for each test compound.\nIn addition, the anti-proliferative effects of CPP9-sPDI (structure 23) were evaluated. FIG. 23 compares the effects of CPP9-sPDI, Nutlin-3a, R9-sPDI, sPDI, CPP9-sPDI(F10A) and Tat-sPDI (0-20 μM) on the viability of SJSA-1 cell line after 72-hour treatment in the presence of 10% FBS as measured by MTT assay."}, "[3]": {"experiment": "Serum stability in 25% human serum", "type": "in vitro ADME", "conditions": "37° C., read-out: compound detected at the end of the study", "method": "FIG. 25 is a graph showing the stability of CPP9-sPDI (structure 23) in 25% human serum at 37° C.\nThe serum stability of CPP9-sPDI was evaluated by incubating the conjugate in 25% human serum at 37° C. over 24 hours. […] The observed level of serum stability (cargo region) may impact the IC50 values measured for this compound."}, "[4]": {"system": "HeLa cells", "experiment": "Live-cell confocal microscopy of FITC-labeled peptides", "type": "cell-based", "conditions": "5 μM FITC-labeled peptide, 2 h, 37° C.", "method": "HeLa cells were treated with 5 μM FITC-labeled peptide for 2 h at 37° C., washed to remove excess peptide, and subjected to live-cell confocal microscopy. I, DIC; II, GFP channel; and III, overlap of I and II.\nFour pairs of the peptides from Table 6 were also labeled with FITC and their entry into HeLa cells were monitored by live-cell confocal microscopy (FIG. 4).\nTo assess delivery aptitude of each conjugate, peptides 22-25 were labeled with FITC and their entry into HeLa cells was monitored by live-cell confocal microscopy (FIG. 21). HeLa cells were treated with 5 μM FITC-labeled peptide for 2 h at 37° C. and washed to remove excess peptide."}, "[5]": {"conditions": "cited from earlier work"}, "[6]": {"experiment": "Aqueous solubility (observation)"}}, "note": "Bridge positions count the residues as written; N and C are the ends. Square brackets hold non-standard residues; d marks the D form. Peptide text beside a SMILES is read from it. I, II: the chains in the order shown. 2Nal = N[C@@H](Cc1ccc2ccccc2c1)C(=O)O; NF = 5(6)-carboxynaphthofluorescein; AEEA = NCCOCCOCC(=O)O; βAla = NCCC(=O)O", "data": [{"compound": "CC(=O)N[C@@H](CC(C)C)C(=O)N[C@H](C(=O)N[C@@H](Cc1ccccc1)C(=O)N[C@H]1CC(=O)NCCCC[C@@H](C(=O)N[C@@H](CCC(N)=O)C(=O)N[C@@H](CC(C)C)C(=O)N[C@H](C(=O)N[C@@H](CO)C(=O)NCCOCCOCC(=O)N[C@@H](CCCCNC(=O)CC[C@@H]2NC(=O)[C@@H](CCCNC(=N)N)NC(=O)[C@H](CCCNC(=N)N)NC(=O)[C@@H](CCCNC(=N)N)NC(=O)[C@H](CCCNC(=N)N)NC(=O)[C@H](Cc3ccc4ccccc4c3)NC(=O)[C@@H](Cc3ccccc3)NC2=O)C(N)=O)[C@@H](C)O)NC(=O)[C@H](Cc2c[nH]c3ccccc23)NC(=O)[C@H](Cc2ccc(O)cc2)NC(=O)[C@H](Cc2c[nH]cn2)NC1=O)[C@@H](C)O", "note": "[Peptide 23] (I: Ac-LTFDHYWKQLTS[AEEA]K-NH2 / II: cyclo([2Nal]R[dR]R[dR]E[dF]); lactam I:4-I:8; amide I:14-II:6)", "values": [{"measurement": "mode of anti-proliferative action (Annexin V+/PI+ and Annexin V+/PI− cells)", "setting": "[1]", "value": "mediated by apoptotic pathways"}]}, {"compound": "CC(=O)N[C@@H](CC(C)C)C(=O)N[C@H](C(=O)N[C@@H](Cc1ccccc1)C(=O)N[C@H]1CC(=O)NCCCC[C@@H](C(=O)N[C@@H](CCC(N)=O)C(=O)N[C@@H](CC(C)C)C(=O)N[C@H](C(=O)N[C@@H](CO)C(=O)NCCOCCOCC(=O)N[C@@H](CCCCNC(=O)CC[C@@H]2NC(=O)[C@@H](CCCNC(=N)N)NC(=O)[C@H](CCCNC(=N)N)NC(=O)[C@@H](CCCNC(=N)N)NC(=O)[C@H](CCCNC(=N)N)NC(=O)[C@H](Cc3ccc4ccccc4c3)NC(=O)[C@@H](Cc3ccccc3)NC2=O)C(N)=O)[C@@H](C)O)NC(=O)[C@H](Cc2c[nH]c3ccccc23)NC(=O)[C@H](Cc2ccc(O)cc2)NC(=O)[C@H](Cc2cnc[nH]2)NC1=O)[C@@H](C)O", "note": "[Peptide 23] (I: Ac-LTFDHYWKQLTS[AEEA]K-NH2 / II: cyclo([2Nal]R[dR]R[dR]E[dF]); lactam I:4-I:8; amide I:14-II:6)", "values": [{"measurement": "IC50", "setting": "[2]", "value": 3.86, "unit": "µM"}, {"measurement": "remaining at 24 h", "setting": "[3]", "value": 25, "unit": "%"}, {"measurement": "cellular uptake by confocal microscopy", "setting": "[4]", "value": "most effective conjugate for delivering sPDI"}]}, {"compound": "5(6)-carboxynaphthofluorescein [NF]", "values": [{"measurement": "pKa", "setting": "[5]", "value": 7.8}]}, {"compound": "NF-βA-TYRGAAQCAAQCVREV-NH2 ({NF-βAla}-TYRGAAQCAAQCVREV-NH2; bridge 8-12; not fully specified (bridges)) [Peptide 20]", "values": [{"measurement": "aqueous solubility", "setting": "[6]", "value": "limited solubility"}]}]}
